# Reference: publication PMC8752738, “A propolis-derived small molecule ameliorates metabolic syndrome in obese mice by targeting the CREB/CRTC2 transcriptional complex” (Nature Communications, 2022)
# Several values for one entry are separate records, joined by “and”; a condition that tells them apart may be missing. Identical values can stand only once.
# Test: Metabolic chamber assay
# Format: in vivo, mouse
# Conditions: DIO ip APC; for AUC of RER, %, group mean: mean of APC group, N=4; for AUC of RER, % / RER of DIO: single animals
# Description: Metabolic parameters of mice were determined using Columbus Instruments Comprehensive Lab Animal Monitoring System (CLAMS). The area unit under the curve (AUC) of respiratory exchange ratio (RER) and ambulatory activity (X-TOT) were calculated using Graphpad prism 8.0.
structure (smiles),measurement,setting,value
"CC(C)=CCc1cc(C=CC(=O)O)cc(CC=C(C)C)c1O [APC, 3,5-diprenyl-4-hydroxycinnamic acid]","AUC of RER, %, group mean",Dark,65.31%
same,"AUC of RER, %, group mean",Light,53.9%
same,"AUC of RER, %",Light,54.07% and 52.83% and 53.85% and 54.85%
same,"RER of DIO, column mean over the RER curve","Mean of APC, 70 intervals, 4 animals",0.8038
same,"AUC of RER, %, column mean over total, light and dark","Mean of APC, two-way RM ANOVA",79.47%
same,"AUC of RER, %, group mean",Total,119.2%
same,"AUC of RER, %",Total,125.06% and 111.68% and 115.24% and 124.86%
same,"AUC of RER, %",dark,70.99% and 58.85% and 61.39% and 70.01%
same,RER of DIO,"interval 1, hour 0",0.728 and 0.729 (2×) and 0.733
same,RER of DIO,"interval 2, hour 0.7",0.795 and 0.774 and 0.72 and 0.734
same,RER of DIO,"interval 3, hour 1.1",0.732 and 0.773 and 0.726 and 0.735
same,RER of DIO,"interval 4, hour 1.5",0.747 and 0.761 and 0.73 and 0.738
same,RER of DIO,"interval 5, hour 1.8",0.78 and 0.778 and 0.722 and 0.754
same,RER of DIO,"interval 6, hour 2.2",0.747 and 0.794 and 0.723 and 0.738
same,RER of DIO,"interval 7, hour 2.6",0.764 and 0.792 and 0.716 and 0.758
same,RER of DIO,"interval 8, hour 2.9",0.779 and 0.804 and 0.705 and 0.738
same,RER of DIO,"interval 9, hour 3.3",0.766 and 0.82 and 0.724 and 0.727
same,RER of DIO,"interval 10, hour 3.7",0.818 and 0.814 and 0.729 and 0.75
same,RER of DIO,"interval 11, hour 4.0",0.78 and 0.803 and 0.732 and 0.733
same,RER of DIO,"interval 12, hour 4.4",0.735 and 0.792 and 0.714 and 0.756
same,RER of DIO,"interval 13, hour 4.8",0.768 and 0.812 and 0.743 and 0.781
same,RER of DIO,"interval 14, hour 5.1",0.759 and 0.799 and 0.716 and 0.757
same,RER of DIO,"interval 15, hour 5.5",0.769 and 0.778 and 0.775 and 0.742
same,RER of DIO,"interval 16, hour 5.9",0.783 and 0.804 and 0.718 and 0.774
same,RER of DIO,"interval 17, hour 6.2",0.75 and 0.77 and 0.709 and 0.78
same,RER of DIO,"interval 18, hour 6.6",0.801 and 0.79 and 0.715 and 0.767
same,RER of DIO,"interval 19, hour 7.0",0.759 and 0.797 and 0.758 and 0.785
same,RER of DIO,"interval 20, hour 7.3",0.769 and 0.747 and 0.713 and 0.758
same,RER of DIO,"interval 21, hour 7.7",0.841 and 0.78 and 0.749 and 0.771
same,RER of DIO,"interval 22, hour 8.1",0.782 and 0.771 and 0.743 and 0.797
same,RER of DIO,"interval 23, hour 8.4",0.804 and 0.814 and 0.781 and 0.79
same,RER of DIO,"interval 24, hour 8.8",0.838 and 0.788 and 0.764 and 0.822
same,RER of DIO,"interval 25, hour 9.2",0.844 and 0.798 and 0.804 and 0.842
same,RER of DIO,"interval 26, hour 9.5",0.809 and 0.808 and 0.794 and 0.831
same,RER of DIO,"interval 27, hour 9.9",0.818 and 0.808 and 0.792 and 0.849
same,RER of DIO,"interval 28, hour 10.3",0.832 and 0.843 and 0.84 and 0.846
same,RER of DIO,"interval 29, hour 10.6",0.841 and 0.824 and 0.818 and 0.858
same,RER of DIO,"interval 30, hour 11.0",0.821 and 0.847 and 0.832 (2×)
same,RER of DIO,"interval 31, hour 11.4",0.844 and 0.835 and 0.841 and 0.829
same,RER of DIO,"interval 32, hour 11.7",0.827 and 0.833 and 0.828 and 0.825
same,RER of DIO,"interval 33, hour 12.1",0.841 and 0.831 and 0.816 (2×)
same,RER of DIO,"interval 34, hour 12.5",0.864 and 0.863 and 0.842 and 0.837
same,RER of DIO,"interval 35, hour 12.8",0.866 and 0.842 and 0.843 and 0.836
same,RER of DIO,"interval 36, hour 13.2",0.891 and 0.836 and 0.797 and 0.825
same,RER of DIO,"interval 37, hour 13.6",0.88 and 0.869 and 0.798 and 0.846
same,RER of DIO,"interval 38, hour 13.9",0.846 and 0.848 and 0.837 and 0.814
same,RER of DIO,"interval 39, hour 14.3",0.854 and 0.82 and 0.839 and 0.825
same,RER of DIO,"interval 40, hour 14.7",0.86 and 0.846 and 0.828 and 0.83
same,RER of DIO,"interval 41, hour 15.0",0.866 and 0.871 and 0.84 and 0.828
same,RER of DIO,"interval 42, hour 15.4",0.814 and 0.86 and 0.83 and 0.806
same,RER of DIO,"interval 43, hour 15.8",0.858 and 0.883 and 0.843 and 0.83
same,RER of DIO,"interval 44, hour 16.1",0.887 and 0.859 and 0.818 and 0.83
same,RER of DIO,"interval 45, hour 16.5",0.883 and 0.858 and 0.81 and 0.824
